In one series the target is T1, human JAK2 kinase domain (Homo sapiens, UniProt O60674).
T1 construct: attached to the N-terminal of the 826 to 1132 (C-terminal) fragment of the human JAK2 protein; His tag (N); purchased Carna Biosciences, Inc. (Kobe, Japan); host or cells: baculovirus expression system
In words: JAK inhibition test: measurement of JAK2 activity. Particulars: 25 μM ATP, absorbance at 450 nm. Type of series: biochemical. The source says: (3) Preparation of Human JAK2
A purified human JAK2 kinase domain was purchased from Carna Biosciences, Inc. (Kobe, Japan). This was obtained as follows. A His tag (39 kDa) was attached to the N-terminal of the 826 to 1132 (C-terminal) fragment of the human JAK2 protein (accession number #NP_004963.1), expressed using a baculovirus expression system, and then purified using Ni-NTA affinity column chromatography.
(4) Measurement of JAK2 Activity
As substrates, Biotin-Lyn-Substrate-2 (Biotin-XEQED EPEGF YFEWL EPE, X=ε−Acp (Peptide Institute, Inc., Osaka, Japan) and ATP were used. As an assay buffer, 15 mM Tris-HCl pH 7.5 containing 0.01% Tween 20 and 2 mM DTT was used. Normally, 20 μL of a substrate solution (an assay buffer containing 627 nM Biotin-Lyn-Substrate-2, 25 μM ATP, and 25 mM MgCl2), an assay buffer containing 10 μL of a test compound, and 20 μL of an enzyme solution were added to a microplate, and stirred sufficiently.
(§1) After incubation at room temperature for 1 hour, the plate was washed with a cleaning buffer (50 mM Tris-HCl pH 7.5, 150 mM NaCl, 0.02% Tween 20), and a blocking buffer (a cleaning buffer containing 0.1% bovine serum albumin) was added to the plate. After incubation at room temperature for 30 minutes, the blocking buffer was removed, and an HRP-PY-20 solution (obtained by diluting HRP-PY-20 solution with the blocking buffer 500 times) was added. After incubation at room temperature for 30 minutes, the plate was washed four times, and a TMB substrate solution (Sigma) was added to the plate. After incubation at room temperature for 4 minutes, 1 M sulfuric acid was added to stop the reaction. Enzyme activity was measured with an absorbance at 450 nm. The JAK2 inhibitory activity of the test compound was calculated by taking the concentration of the test compound which inhibits the JAK2 activity by 50% as an IC50 value.

A further series addresses T2, human JAK1 kinase domain (Homo sapiens, UniProt P23458).
T2 construct: attached to the N-terminal of the 850 to 1154 (C-terminal) fragment of the human JAK1 protein; GST (N); purchased Carna Biosciences, Inc. (Kobe, Japan); host or cells: baculovirus expression system
In words: JAK inhibition test: measurement of JAK1 activity. The following applies: 500 μM ATP, absorbance at 450 nm. The format is biochemical.
From the text: (1) Preparation of Human JAK1
A purified human JAK1 kinase domain was purchased from Carna Biosciences, Inc. (Kobe, Japan). This was obtained as follows. A GST tag (62 kDa) was attached to the N-terminal of the 850 to 1154 (C-terminal) fragment of the human JAK1 protein (accession number #BAD92294.1), expressed using a baculovirus expression system, and then purified using Glutathion Sepharose chromatography.
(2) Measurement of JAK 1 Activity
As substrates, Biotin-Lyn-Substrate-2 (Biotin-XEQED EPEGF YFEWL EPE, X=ε−Acp (Peptide Institute, Inc., Osaka, Japan) and ATP were used. As an assay buffer, 15 mM Tris-HCl pH 7.5 containing 0.01% Tween 20 and 2 mM DTT was used. Normally, 20 μL of a substrate solution (an assay buffer containing 627 nM Biotin-Lyn-Substrate-2, 500 μM ATP, and 25 mM MgCl2), an assay buffer containing 10 μL of a test compound, and 20 μL of an enzyme solution were added to a microplate, and stirred sufficiently.
as §1, with “JAK1” for “JAK2”

The target in another series is T3, human JAK3 kinase domain (Homo sapiens, UniProt P52333).
T3 construct: attached to the N-terminal of the 796 to 1124 (C-terminal) fragment of the human JAK3 protein; His tag (N); purchased Carna Biosciences, Inc. (Kobe, Japan); host or cells: baculovirus expression system
Nature of the series: JAK inhibition test: measurement of JAK3 activity. Type of series: biochemical. Particulars: 20 μM ATP, absorbance at 450 nm.
From the text: (5) Preparation of Human JAK3
A purified human JAK3 kinase domain was purchased from Carna Biosciences, Inc. (Kobe, Japan). This was obtained as follows. A His tag (41 kDa) was attached to the N-terminal of the 796 to 1124 (C-terminal) fragment of the human JAK3 protein (accession number #NM_000215), expressed using a baculovirus expression system, and then purified using Ni-NTA affinity column chromatography.
(6) Measurement of JAK3 Activity
As substrates, Biotin-Lyn-Substrate-2 (Biotin-XEQED EPEGF YFEWL EPE, X=ε−Acp (Peptide Institute, Inc., Osaka, Japan) and ATP were used. As an assay buffer, 15 mM Tris-HCl pH 7.5 containing 0.01% Tween 20 and 2 mM DTT was used. Normally, 20 μL of a substrate solution (an assay buffer containing 627 nM Biotin-Lyn-Substrate-2, 20 μM ATP, and 25 mM MgCl2), an assay buffer containing 10 μL of a test compound, and 20 μL of an enzyme solution
as §1, with “JAK3” for “JAK2”

Series [1] has as its system heart transplantation rejection. Nature of the series: Rat heart transplantation (heterotopic, ACI donor to Lewis recipient). The format is in vivo. Particulars: 20 mg/kg orally once daily for 14 days from transplantation, observed 29 days. The procedure:
Heterotopic heart transplantation into the rat abdomen was performed in accordance with reference materials. With regard to the animals, ACI-based male rats were used as donors and Lewis-based male rats were used as recipients. In addition, Lewis rats were fasted the day before the transplant. The test drugs were orally administered at a dose of 20 mg/kg once daily for 14 days from the date of transplantation. For determining the heart transplantation rejection, the heart transplantation was observed daily by palpation for 29 days after transplantation, and stoppage of beating was taken as rejection. The survival period in days was counted until the day before rejection. From the survival period in days, a value of MST (Median Survival Time) was determined.

Series [2] concerns stat5 phosphorylation of CD3+lymphocytes in the blood. In words: Measurement of PD activity (stat5 phosphorylation in blood after oral dosing). Type of series: in vivo, rat. Particulars: 20 mg/kg orally to normal rats, blood collected 4 hours later, cytokine stimulation, FACS. On the procedure:
Measurement of PD activity was carried out by evaluating the degree of stat5 phosphorylation of CD3+lymphocytes in the blood.
Compounds at (20 mg/kg) were orally administered to normal rats, and 4 hours later, 200 μL of blood was collected therefrom. For phosphorylation of stat5, stimulating cytokines (IL-2, 7, 15, etc., Peprotec) were added thereto, and CD3 antibodies fluorescently labeled (BD pharmingen) was added at a dose of 1/20, followed by incubation at 37° C. 5 mL of a lysing buffer (BD Pharmingen) was added to stop the reaction, and then washed by the addition of PBS (−) (Phosphate Buffered Saline (−), manufactured by Shin Yang Chemical Industries, Ltd.). 300 μL of a permeabilization buffer (BD Pharmingen) was added thereto, followed by immobilization on ice. The resultant was washed with a FACS buffer, and then fluorescently-labeled phosphorylation stat5 antibodies (BD Pharmingen) were added thereto, followed by further incubation at room temperature. After incubation, the cells were washed with a FACS buffer, insoluble materials were removed through a filter. Fluorescence measurement was carried out using a FACScalibur. For an individual of each rat, a sample with addition of cytokine and a sample without addition of cytokine were prepared, and a difference of the respective average fluorescence intensities (AMFI) was determined. As a control, the blood of rats to which the compound had not been administered was used, and an inhibitory rate was calculated from the average fluorescence intensity of the respective group of the samples to which the compound had been added, relative to the average fluorescence intensity of the control sample (Inhibitory Rate (%)=100*(1−(ΔMFI of Sample)/(ΔMFI of Control)).

T2 sequence (P23458 850-1154): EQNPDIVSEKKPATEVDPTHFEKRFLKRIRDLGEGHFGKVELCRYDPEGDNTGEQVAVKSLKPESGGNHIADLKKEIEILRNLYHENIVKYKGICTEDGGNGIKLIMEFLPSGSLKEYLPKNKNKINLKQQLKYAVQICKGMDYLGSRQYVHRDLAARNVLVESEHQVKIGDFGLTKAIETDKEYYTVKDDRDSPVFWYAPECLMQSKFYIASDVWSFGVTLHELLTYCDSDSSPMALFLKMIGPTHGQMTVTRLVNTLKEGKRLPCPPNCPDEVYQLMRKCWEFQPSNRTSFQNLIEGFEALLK
T3 sequence (P52333 796-1124): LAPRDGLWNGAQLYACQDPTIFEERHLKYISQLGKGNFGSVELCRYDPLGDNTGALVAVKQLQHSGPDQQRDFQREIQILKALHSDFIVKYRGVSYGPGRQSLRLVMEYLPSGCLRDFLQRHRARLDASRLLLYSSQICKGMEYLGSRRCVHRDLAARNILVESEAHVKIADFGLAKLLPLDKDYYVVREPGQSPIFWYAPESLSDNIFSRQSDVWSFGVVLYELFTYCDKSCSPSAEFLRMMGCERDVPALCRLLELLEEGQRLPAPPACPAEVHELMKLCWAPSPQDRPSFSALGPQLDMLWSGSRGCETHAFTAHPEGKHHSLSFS
T1 sequence (O60674 826-1132): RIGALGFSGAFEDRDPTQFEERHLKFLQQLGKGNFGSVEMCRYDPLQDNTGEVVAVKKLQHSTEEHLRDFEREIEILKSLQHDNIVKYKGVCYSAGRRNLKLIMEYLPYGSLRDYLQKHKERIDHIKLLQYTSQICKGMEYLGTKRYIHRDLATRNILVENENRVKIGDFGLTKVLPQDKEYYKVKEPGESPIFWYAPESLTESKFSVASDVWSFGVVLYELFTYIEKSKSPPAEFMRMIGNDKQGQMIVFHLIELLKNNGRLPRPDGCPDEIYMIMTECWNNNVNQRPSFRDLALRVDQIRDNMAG

The melting point is the temperature of the solid-liquid transition. With `C[C@H]1CCN(C(=O)CC#N)C[C@H]1n1ccc2cnc3[nH]cc(C#N)c3c21` [Example 2-18], the melting point was 286 to 290 °C (dec.).
The term IC50 denotes the concentration that gives 50% inhibition. Read a low IC50 as higher potency. On to `Cc1nnnn1CC(=O)N1CC[C@@H](C)[C@@H](n2ccc3cnc4[nH]ccc4c32)C1` (racemic) [Example 2-15], for which the IC50 worked out at 2.9 nM against human JAK2 kinase domain, 4.7 nM against human JAK1 kinase domain and 1.3 nM against human JAK3 kinase domain.
The matching figures for `C[C@@H]1CCN(C(=O)Cn2cnnn2)C[C@@H]1n1ccc2cnc3[nH]ccc3c21` (racemic) [Example 2-14]: 2.5 nM, 3.1 nM and 0.52 nM.
As to `C[C@@H]1CCN(C(=O)CC#N)C[C@@H]1n1cc(Br)c2cnc3[nH]cc(C#N)c3c21` (racemic) [Example 2-2], the IC50 against human JAK2 kinase domain is 2.5 nM; against human JAK1 kinase domain, 6.9 nM; at human JAK3 kinase domain, 0.27 nM.
`C[C@@H]1CCN(C(=O)CC#N)C[C@@H]1n1ccc2cnc3[nH]ccc3c21` [Example 2-10]: the “MST (Median Survival Time)” value in series [1] turned out to be 17 days. In addition, the IC50 amounted to 0.35 nM on human JAK2 kinase domain, 0.49 nM against human JAK1 kinase domain and 0.19 nM against human JAK3 kinase domain.
Turning to `C[C@@H]1CCN(c2cnc(C#N)cn2)C[C@@H]1n1ccc2cnc3[nH]ccc3c21` (racemic) [Example 4-1], the IC50 at human JAK2 kinase domain amounted to 3 nM; against human JAK1 kinase domain, 7.9 nM; against human JAK3 kinase domain it was 0.88 nM.
On to `C[C@@H]1CCN(c2ccc(C#N)cn2)C[C@@H]1n1ccc2cnc3[nH]ccc3c21` (racemic) [Example 4], for which the IC50 turned out to be 3.5 nM at human JAK2 kinase domain, 16 nM on human JAK1 kinase domain and 1.1 nM against human JAK3 kinase domain.
Turning to `C[C@@H]1CCN(C(=O)CC#N)C[C@@H]1n1ccc2cnc3[nH]cc(Br)c3c21` (racemic) [Example 2-4], the results for the IC50 at human JAK2 kinase domain, at human JAK1 kinase domain and against human JAK3 kinase domain were 1 nM, 6.8 nM and 0.26 nM, respectively.
The matching figures for `C[C@@H]1CCN(C(=O)CC#N)C[C@@H]1n1cc(-c2ccncc2)c2cnc3[nH]cc(C#N)c3c21` (racemic) [Example 2-17]: 0.53 nM, 0.76 nM and 0.41 nM.
Regarding `C[C@@H]1CCN(C(=O)CC#N)C[C@@H]1n1ccc2cnc3[nH]ccc3c21` (racemic) [Example 2-7], in series [1], the “MST (Median Survival Time)” value is recorded as above 28 days. Further, the “Inhibition Ratio (stat5 phosphorylation)” value in series [2] is given as 95%.
`C[C@@H]1CCN(C(=O)CC#N)C[C@@H]1n1cc(Br)c2cnc3[nH]ccc3c21` (racemic) [Example 2-5]: the figures for the IC50 at human JAK2 kinase domain, at human JAK1 kinase domain and against human JAK3 kinase domain were 0.6 nM, 1.1 nM and 0.3 nM, respectively. In addition, the “Inhibition Ratio (stat5 phosphorylation)” value in series [2] is on record as 86%.
For `Cc1cc2cnc3[nH]ccc3c2n1[C@H]1CN(C(=O)CC#N)CC[C@H]1C` (racemic) [Example 2-74], the “Inhibition Ratio (stat5 phosphorylation)” value in series [2] is 98%.
The same measure, in the same setting: in the case of `C[C@@H]1CCN(S(=O)(=O)N(C)CC#N)C[C@@H]1n1ccc2cnc3[nH]ccc3c21` (racemic) [Example 9-3] it was 62%.
Take `C[C@@H]1CCN(C(=O)CC#N)C[C@@H]1n1ccc2cnc3[nH]cc(C#N)c3c21` [Example 2-19]: the melting point was 288 to 290 °C (dec.). At human JAK2 kinase domain, this compound had an IC50 of 1.4 nM. The same compound registered an IC50 against human JAK1 kinase domain of 3.2 nM. At human JAK3 kinase domain, this compound showed an IC50 of 0.11 nM.
On to `C[C@@H]1CCN(C(=O)N(C)CC#N)C[C@@H]1n1ccc2cnc3[nH]ccc3c21` (racemic) [Example 5-1], for which the IC50 against human JAK2 kinase domain came to 0.89 nM; against human JAK1 kinase domain, 3 nM; at human JAK3 kinase domain it was 0.61 nM.
As to `O[C@]12CC3C[C@H](C1)[C@H](n1ccc4cnc5[nH]ccc5c41)[C@@H](C3)C2` [Example 1, (1S,3R,4R,5s)-4-(dipyrrolo[2,3-b:2′,3′-d]pyridin-1(6H)-yl)adamantan-1-ol], the IC50 on human JAK2 kinase domain was determined as 1.6 nM; at human JAK1 kinase domain it was 6.1 nM; on human JAK3 kinase domain, 1 nM.
